IC50 data for 14 molecules are collected here from patent US12338256B2, “Aza-tetracyclic oxazepine compounds and uses thereof” (Genentech, Inc., priority 2022, dated 2025).

Type in all cases: cell-based
The subject of assay [1] is HPAC (homozygous mutant KRAS G12D human pancreatic cell line). Nature of the assay: KRAS 3D-Cell Proliferation Assay, HPAC (Example 503). The note with it: Homo sapiens, HPAC, 168 h, HPAC 3D culture, 7 days, CellTiter-Glo 3D; read-out: Prolif HPAC 3D ATP IC50. Put shortly: (§1)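 Luminescent ATP readout (CellTiter-Glo 3D, with mechanical mixing) measures growth of cells cultured in 3D after a 7-day compound exposure at 37° C. Percent inhibition is referenced to vehicle (DMSO) and 1 μM staurosporine controls, and IC50 comes from a four-parameter Hill fit.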

Assay [2] concerns AsPC-1 (homozygous mutant KRAS G12D human pancreatic cell line). Nature of the assay: KRAS 3D-Cell Proliferation Assay, AsPC-1 (Example 503). The note with it: Homo sapiens, ASPC1, 168 h, AsPC-1 3D culture, 7 days, CellTiter-Glo 3D; read-out: Prolif AsPC-1 3D ATP IC50. Put shortly:
as §1
(ATP-based viability assays read luminescence as a measure of living cells.)

In assay [3] the test system is H1975 (KRAS wild type human lung adenocarcinoma cell line). Kind of assay: KRAS 3D-Cell Proliferation Assay, H1975 (Example 503). Particulars: Homo sapiens, NCI-H1975, 168 h, H1975 3D culture, 7 days, CellTiter-Glo 3D; read-out: Prolif H1975 3D ATP IC50. Put shortly:
as §1

`C[C@@H]1Oc2nc(-c3cc(N)c(F)c(Cl)c3CC(F)F)c(F)c3nc(OC[C@@]45CCCN4C[C@H](F)C5)nc(c23)N2C[C@H]3CC[C@H](N3)[C@@H]12` [Compound 186, 3-Chloro-4-(2,2-difluoroethyl)-2-fluoro-5-((5S,5aS,6S,9R)-1-fluoro-12-(((2R,7aS)-2-fluorotetrahydro-1H-pyrrolizin-7a(5H)-yl)methoxy)-5-methyl-5a,6,7,8,9,10-hexahydro-5H-4-oxa-3,10a,11,13,14-pentaaza-6,9-methanonaphtho[1,8-ab]heptalene-2-yl)aniline]: the half-inhibitory concentration (IC50) (as a rule, the concentration that gives 50% inhibition) in assay [1] was 2.58 nM; in assay [2], 8.9 nM; in assay [3], 1090 nM.

For `C[C@@H]1Oc2nc(-c3cc(N)c(F)c(F)c3CC(F)F)c(F)c3nc(OC[C@@]45CCCN4C[C@H](F)C5)nc(c23)N2C[C@H]3CC[C@H](N3)[C@@H]12` [Compound 190, 4-(2,2-Difluoroethyl)-2,3-difluoro-5-((5S,5aS,6S,9R)-1-fluoro-12-(((2R,7aS)-2-fluorotetrahydro-1H-pyrrolizin-7a(5H)-yl)methoxy)-5-methyl-5a,6,7,8,9,10-hexahydro-5H-4-oxa-3,10a,11,13,14-pentaaza-6,9-methanonaphtho[1,8-ab]heptalene-2-yl)aniline], the 50% inhibitory concentration (IC50) in assay [1] worked out at 2.2 nM; in assay [2], 12.6 nM; in assay [3], 1560 nM.

`Cc1nc(N)c(F)c(-c2nc3c4c(nc(OC[C@@]56CCCN5C[C@H](F)C6)nc4c2F)N2C[C@H]4CC[C@H](N4)[C@H]2[C@H](C)O3)c1C(F)(F)F` [Compound 194, 3-Fluoro-4-((5S,5aS,6S,9R)-1-fluoro-12-(((2R,7aS)-2-fluorotetrahydro-1H-pyrrolizin-7a(5H)-yl)methoxy)-5-methyl-5a,6,7,8,9,10-hexahydro-5H-4-oxa-3,10a,11,13,14-pentaaza-6,9-methanonaphtho[1,8-ab]heptalen-2-yl)-6-methyl-5-(trifluoromethyl)pyridin-2-amine]: the IC50 was 4.99 nM in assay [1], 2.7 nM in assay [2] and 919 nM in assay [3].

`Cc1nc(N)cc(-c2nc3c4c(nc(OCC5(CN6C7CCC6COC7)CC5)nc4c2F)N2C[C@H]4CC[C@H](N4)[C@H]2[C@H](C)O3)c1C(F)(F)F` [Compound 206, 4-((5S,5aS,6S,9R)-12-((1-((3-Oxa-8-azabicyclo[3.2.1]octan-8-yl)methyl)cyclopropyl)methoxy)-1-fluoro-5-methyl-5a,6,7,8,9,10-hexahydro-5H-4-oxa-3,10a,11,13,14-pentaaza-6,9-methanonaphtho[1,8-ab]heptalene-2-yl)-6-methyl-5-(trifluoromethyl)pyridin-2-amine]: the 50% inhibitory concentration (IC50) in assay [1] is 3.16 nM; in assay [2] it was 3.6 nM; in assay [3], 2840 nM.

For the molecule `Cc1nc(N)cc(-c2nc3c4c(nc(OCC5(CN6CCOCC6)CC5)nc4c2F)N2C[C@H]4CC[C@H](N4)[C@H]2[C@H](C)O3)c1C(F)(F)F` [Compound 210, 4-((5S,5aS,6S,9R)-1-Fluoro-5-methyl-12-((1-(morpholinomethyl)cyclopropyl)methoxy)-5a,6,7,8,9,10-hexahydro-5H-4-oxa-3,10a,11,13,14-pentaaza-6,9-methanonaphtho[1,8-ab]heptalene-2-yl)-6-methyl-5-(trifluoromethyl)pyridin-2-amine], the IC50 in assay [1] is 1.81 nM; in assay [2], 3.6 nM; in assay [3], 868 nM.

With `Cc1nc(N)cc(-c2nc3c4c(nc(OCC56CCN5CC(F)(F)C6)nc4c2F)N2C[C@H]4CC[C@H](N4)[C@H]2[C@H](C)O3)c1C(F)(F)F` (stereo partly drawn) [Compound 214, 4-((5S,5aS,6S,9R)-12-((3,3-Difluoro-1-azabicyclo[3.2.0]heptan-5-yl)methoxy)-1-fluoro-5-methyl-5°,6,7,8,9,10-hexahydro-5H-4-oxa-3,10°,11,13,14-pentaaza-6,9-methanonaphtho[1,8-ab]heptalen-2-yl)-6-methyl-5-(trifluoromethyl)pyridin-2-amine], the figures for the IC50 in assay [1], in assay [2] and in assay [3] were 8.04 nM, 25.4 nM and 7030 nM, respectively.

Regarding `Cc1nc(N)cc(-c2nc3c4c(nc(OC[C@@]56CCCN5C[C@H](F)C6)nc4c2F)N2C[C@H]4CC[C@H](N4)[C@H]2[C@H](C)O3)c1C(F)(F)F` [Compound 215, 4-((5S,5aS,6S,9R)-1-Fluoro-12-(((2R,7aS)-2-fluorotetrahydro-1H-pyrrolizin-7°(5H)-yl)methoxy)-5-methyl-5°,6,7,8,9,10-hexahydro-5H-4-oxa-3,10°,11,13,14-pentaaza-6,9-methanonaphtho[1,8-ab]heptalen-2-yl)-6-methyl-5-(trifluoromethyl)pyridin-2-amine], the IC50 in assay [1] worked out at 2.5 nM; in assay [2], 7.8 nM; in assay [3] it was 831 nM.

Take `Cc1nc(N)cc(-c2nc3c4c(nc(OC[C@@]56CCCN5CC5(CC5(F)F)C6)nc4c2F)N2C[C@H]4CC[C@H](N4)[C@H]2[C@H](C)O3)c1C(F)(F)F` (stereo partly drawn) [Compound 216, 4-((5S,5aS,6S,9R)-12-(((7a′S)-2,2-Difluorodihydro-1′,3′H-spiro[cyclopropane-1,2′-pyrrolizin]-7a′(5′H)-yl)methoxy)-1-fluoro-5-methyl-5a,6,7,8,9,10-hexahydro-5H-4-oxa-3,10a,11,13,14-pentaaza[6,9]methanonaphtho[1,8-ab]heptalene-2-yl)-6-methyl-5-(trifluoromethyl)pyridin-2-amine]: the IC50 came to 0.893 nM in assay [1], 0.6 nM in assay [2] and 161 nM in assay [3].

With `Cc1c(F)c(N)c(F)c(-c2nc3c4c(nc(OCC5(CN6CCOCC6)CC5)nc4c2F)N2C[C@H]4CC[C@H](N4)[C@H]2[C@H](C)O3)c1C(F)(F)F` [Compound 224, 2,6-Difluoro-3-((5S,5aS,6S,9R)-1-fluoro-5-methyl-12-((1-(morpholinomethyl)cyclopropyl)methoxy)-5a,6,7,8,9,10-hexahydro-5H-4-oxa-3,10a,11,13,14-pentaaza-6,9-methanonaphtho[1,8-ab]heptalen-2-yl)-5-methyl-4-(trifluoromethyl)aniline], the IC50 in assay [1] was 2.72 nM; in assay [2] it was 3.5 nM; in assay [3], 711 nM.

For `Cc1c(F)c(N)c(F)c(-c2nc3c4c(nc(OC[C@@]56CCCN5CC5(CC5(F)F)C6)nc4c2F)N2C[C@H]4CC[C@H](N4)[C@H]2[C@H](C)O3)c1C(F)(F)F` (stereo partly drawn) [Compound 225, 3-((5S,5aS,6S,9R)-12-(((7′S)-2,2-Difluorodihydro-1′H,3′H-spiro[cyclopropane-1,2′-pyrrolizin]-7a′(5′H)-yl)methoxy)-1-fluoro-5-methyl-5a,6,7,8,9,10-hexahydro-5H-4-oxa-3,10a,11,13,14-pentaaza[6,9]methanonaphtho[1,8-ab]heptalene-2-yl)-2,6-difluoro-5-methyl-4-(trifluoromethyl)aniline], the IC50 was found to be 1.19 nM in assay [1], 2.9 nM in assay [2] and 561 nM in assay [3].

Regarding `Cc1cc(N)c(F)c(-c2nc3c4c(nc(OCC5(CN6CCOCC6)CC5)nc4c2F)N2C[C@H]4CC[C@H](N4)[C@H]2[C@H](C)O3)c1C(F)(F)F` [Compound 226, 2-Fluoro-3-((5S,5aS,6S,9R)-1-fluoro-5-methyl-12-((1-(morpholinomethyl)cyclopropyl)methoxy)-5a,6,7,8,9,10-hexahydro-5H-4-oxa-3,10a,11,13,14-pentaaza-6,9-methanonaphtho[1,8-ab]heptalene-2-yl)-5-methyl-4-(trifluoromethyl)aniline], the results for the IC50 in assay [1], in assay [2] and in assay [3] were 0.86 nM, 1.2 nM and 568 nM, respectively.

Regarding `Cc1nc(N)cc(-c2nc3c4c(nc(OC[C@@]56CCCN5C[C@H](F)C6)nc4c2F)N2C[C@H]4CC[C@H](N4)[C@H]2[C@H](C(F)(F)F)O3)c1C(F)(F)F` [Compound 242, 4-((5R,5aS,6S,9R)-1-Fluoro-12-(((2R,7aS)-2-fluorotetrahydro-1H-pyrrolizin-7a(5H)-yl)methoxy)-5-(trifluoromethyl)-5a,6,7,8,9,10-hexahydro-5H-4-oxa-3,10a,11,13,14-pentaaza-6,9-methanonaphtho[1,8-ab]heptalen-2-yl)-6-methyl-5-(trifluoromethyl)pyridin-2-amine], the IC50 in assay [1] is 5.11 nM; in assay [2], 7.8 nM; in assay [3] it was 1040 nM.

Regarding `Cc1c(F)c(N)cc(-c2nc3c4c(nc(OC[C@@H]5CC[C@H]6COCCN65)nc4c2F)N2C[C@H]4CC[C@H](N4)[C@H]2[C@H](C(F)(F)F)O3)c1C(F)(F)F` [Compound 245, 2-Fluoro-5-((5R,5aS,6S,9R)-1-fluoro-12-(((6S,8aS)-hexahydro-1H-pyrrolo[2,1-c][1,4]oxazin-6-yl)methoxy)-5-(trifluoromethyl)-5a,6,7,8,9,10-hexahydro-5H-4-oxa-3,10a,11,13,14-pentaaza-6,9-methanonaphtho[1,8-ab]heptalene-2-yl)-3-methyl-4-(trifluoromethyl)aniline], the IC50 in assay [1] was found to be 4.13 nM; in assay [2], 3.6 nM; in assay [3], 739 nM.

As for `Cc1c(F)c(N)cc(-c2nc3c4c(nc(OC[C@@]56CCCN5C[C@H](F)C6)nc4c2F)N2C[C@H]4CC[C@H](N4)[C@H]2[C@H](C(F)(F)F)O3)c1C(F)(F)F` [Compound 247, 2-Fluoro-5-((5R,5aS,6S,9R)-1-fluoro-12-(((2R,7aS)-2-fluorotetrahydro-1H-pyrrolizin-7a(5H)-yl)methoxy)-5-(trifluoromethyl)-5a,6,7,8,9,10-hexahydro-5H-4-oxa-3,10a,11,13,14-pentaaza-6,9-methanonaphtho[1,8-ab]heptalene-2-yl)-3-methyl-4-(trifluoromethyl)aniline], the IC50 is 1.64 nM in assay [1], 1 nM in assay [2] and 643 nM in assay [3].
